Data as given in patent US20120142750A1, “INDOLEAMINE 2,3-DIOXYGENASE PATHWAYS IN THE GENERATION OF REGULATORY T CELLS” (Regents of the University of Minnesota, priority 2005, published 2012).
Entries after “also recorded” stand apart in the source; their conditions may differ.

Experiments:
OT-I and A1 T cells = assay: Bystander-suppression assays (TDLN IDO+ DCs, OT-I, Tregs, A1 bystander cells); assay type: cell-based, mouse
Procedure: Isolation of tumor-draining lymph node DCs.
Bystander-suppression assays. All experiments were repeated 3-5 times unless otherwise indicated. OT-I cells were sorted as CD8^+ spleen cells, gated on the CD11c^NEGB220^NEG fraction to exclude DCs. Sorted DCs from TDLN were mixed with 1×10^5 responder cells at a 1:40 ratio in V-bottom culture wells (Nunc). […] Sorted CD4^+ A1 cells (1×10^5) and CD11c^+ DCs (1:40 ratio) from normal CBA spleen were added as bystander cells. […] For transwell assays, 96-Multiwell insert plates (1 uM pore size, BD Falcon) were used and the number of cells in all groups was doubled.
Feeder layer. Plasmacytoid DCs and Tregs have been reported to require survival factors to maintain viability and function in vitro.
Readouts for T cell proliferation. […] After 72 hours, assays were stained for CD4 vs CD8 and CFSE fluorescence analyzed gated on CD4^+ (A1) and CD8^+ (OT-I) populations.
Anti-CD3 proliferation and preactivation assays. […] For pre-activation studies, 2×10^4 Tregs were cultured with 1×10^5T-depleted spleen cells plus 0.1 ug/ml αCD3 antibody and 200 U/ml IL-2 (R&D Systems) for 48 hours.

[1] = test system: Tregs from draining lymph nodes; assay: Adoptive transfer of TDLN DCs and ex-vivo Treg assay; assay type: in vivo, mouse; conditions: sustained-release pellets; Tregs isolated after four days
From the text: Adoptive transfer and ex-vivo Treg assay. The adoptive transfer model has been previously described (Munn et al., Immunit), 2005; 22:633-642; and Munn et al., J. Clin. Invest. 2004a; 114; 280-290). Briefly, DCs were sorted from TDLNs (total CD11c^+ cells), pulsed with […] (SEQ ID NO:1) peptide, and 5×10^4 DCs injected into anteriomedial thigh. For studies measuring ex vivo Treg suppressor activity, the recipient mice were pre-loaded with 5×10^6 sorted CD8^+ T-I cells. After four days, the inguinal LNs draining the site of DC injection were removed, and the CD4^+CD25^+ Tregs were isolated by FACS sorting. A titration of Tregs was added to readout assays, comprising CD4^+ A1 cells, CBA DCs, feeder layer, and H—Y peptide, all as described above. For CFSE proliferation studies, CD8^+ OT-I (wild-type or GCN2-KO background) were sorted, labeled with CFSE, and 5×10^6 cells injected intravenously into wild-type or GCN2-KO recipients. OVA-pulsed DCs from TDLNs were injected as above, and the inguinal (draining) LNs harvested after four days. LN cells were analyzed by FACS for CD8 vs 1B11 vs CFSE.

[2] = test system: primed CD4+ T cells / naive CD4+ T cells; assay: MLR assays of function of CpG-PDC or CpG-B cell primed CD4+ T cells; assay type: cell-based, human
Procedure: In vitro priming of naive CD4+ T cells. CD4+CD45RA+ naive T cells were primed with allogeneic PDCs or irradiated B cells (30 Gy) at a 10:1 ratio (e.g., 2×10^6 naive CD4+ T cells plus 2×105 PDCs per well in 24-well plates) with ODN 2216 or ODN 2006 present in RPMI 1640 medium supplemented with 10% human AB serum. 1 MT and/or KYN were added into CpG ODN-PDC or CpG ODN-B cell mediated naive CD4+ T cell priming cultures as indicated. In some experiments, blocking Abs against CD80, CD86, HLA-DR or the control IgG Ab (R&D Systems, Minneapolis, Minn.) were added to CpG-PDC-mediated naive CD4+ T cell priming cultures at a final Ab concentration ranging from 0.1 to 10 μg/ml. After 7 days, primed T cells in cultures were harvested, assessed for their surface phenotype, intracellular Foxp3 expression, and their function in MLR assays.
MLR assays. […] In all T cell proliferation assays, plates were incubated at 37° C. for 5 days and pulsed with 1 μCi of 3H-thymidine per well for the last 18 hours before harvesting. All determinations were carried out in triplicate and 3H-thymidine incorporation was determined.

CHOP in Tregs = assay: Intracellular CHOP expression in Tregs and OT-I cells cultured with TDLN pDCs; assay type: cell-based, mouse; conditions: 48 hours; with OVA antigen; no bystander cells
From the text: Flow cytometry. Details of the staining protocols are given below. For CHOP and Foxp3 staining, assays were set up without the A1 bystander cells, so that the Tregs were the only CD4^+ cells in the system and thus could be unambiguously followed throughout the assay.
FAGS staining. Antibodies were from BD-Pharmingen unless otherwise noted. Anti-mouse CD25-APC conjugate (clone PC61, cat. #17-0251-81) was from eBioscience: This conjugate gave brighter signal and better separation of CD25^+ cells than other conjugates from other suppliers. For intracellular staining of CHOP, live cells were first blocked for 10 minutes with mouse Fc Block (BD Pharmingen) in 10% fetal calf serum medium, stained with anti-CD4-FITC for 30 minutes on ice, washed with PBS, then fixed and permeablized for 20 minutes in 250 ul Cytoperm/Cytofix solution (BD Pharmingen) on ice. All subsequent staining and wash steps were in BD Permwash solution. Fixed cells were stained with 1:100 dilution of monoclonal anti-gadd153/CHOP (sc-7351, Santa Cruz Biotechnology), washed, and stained with secondary monoclonal rat anti-mouse-IgG1-PE (#550083, BD Biosciences). […] For CHOP staining, assays were set up without A1 bystander cells, so that Tregs were the only CD4^+ cells, and thus could be unambiguously followed throughout the assay. […]

Cn1cc(C[C@@H](N)C(=O)O)c2ccccc21 [Inhibitor 1MT, 1-methyl-D-tryptophan]
Treg-mediated suppression of bystander cells when IDO blocked (OT-I and A1 T cells; 200 uM 1MT, without αCD3 mitogen): no suppression; also recorded: no spontaneous suppressor activity
αCD3-induced suppression in transwell experiments (OT-I and A1 T cells; 10-fold more Tregs, αCD3 mitogen added): not blocked
suppression of bystander cells by Tregs in transwell chambers (OT-I and A1 T cells; transwell, Tregs with IDO+ DCs in lower chamber): abrogated
ex vivo suppressor activity of Tregs from recipient mice given IDO+ DCs [1]: did not develop ex vivo suppressor activity
T cell responses after priming with CpG ODN-activated B cells (control for nonspecific effects) ([2]; 1MT added to priming MLRs with IDO-negative B cells): no nonspecific effect
anergy/hyporesponsiveness of primed CD4+ T cells to subsequent alloantigen stimulation ([2]; 1MT present during priming): prevented CD4+ T cells from becoming anergic/hyporesponsive
suppressor/regulatory activity of PDC-primed T cells on proliferation of naive CD4+ T cells in MLR ([2]; 1MT present during priming): blocked the generation of suppressor/regulatory activity; also recorded: markedly reduced
CHOP induction in Tregs (and OT-I) (CHOP in Tregs): abrogated
